Laboratory results from ChEMBL document CHEMBL1125127 (J Med Chem, 1990).

Columns and labels:
Canis familiaris [1] = assay: Percent change in FRP from control at active dose 10-30 mg/kg administered intraperitoneally in anesthetized dogs; format: functional, Canis lupus familiaris
Canis familiaris [2] = assay: Concentration that causes a 20% increase in APD95 (action potential duration at 95% repolarization) from control value in anesthetized dogs; format: functional, Canis lupus familiaris
Canis familiaris [3] = assay: Percent change in heart rate (HR) from control at active dose 10-30 mg/kg administered intraduodenally
Canis familiaris [4] = assay: Maximum change in […] from control value in anesthetized dogs; 10 uM.; format: functional, Canis lupus familiaris
[5] = Ratio of number of active animals to number of treated at dose 10-30 mg/kg administered intraperitoneally in anesthetized dogs; No of animals tested=2; format: functional
[6] = biological target: Beta adrenergic receptor (Canis familiaris)
Canis familiaris [7] = assay: Percent change in blood pressure (BP) from control at active dose 10-30 mg/kg administered intraperitoneally in anesthetized dogs; format: functional, Canis lupus familiaris
Canis familiaris [8] = assay: Percent change in heart rate (HR) from control at active dose 10 mg/kg administered intraduodenally; conditions: route intraduodenal
[9] = Ratio of number of active animals to number of treated at dose 10 mg/kg administered intraperitoneally in anesthetized dogs; No of animals tested=2; format: functional; conditions: route intraperitoneal
Canis familiaris [10] = assay: Concentration at which maximum change in […] was observed from control value in anesthetized dogs; The maximum observed change APD95 from control value and concentration at 10 uM when this occurred; format: functional, Canis lupus familiaris
Canis familiaris [11] = assay: Percent change in blood pressure (BP) from control at active dose 10 mg/kg administered intraperitoneally in anesthetized dogs; format: functional, Canis lupus familiaris; conditions: route intraperitoneal
Canis familiaris [12] = assay: Percent change in FRP from control at active dose 10 mg/kg administered intraperitoneally in anesthetized dogs; format: functional, Canis lupus familiaris; conditions: route intraperitoneal
[13] = biological target: Adrenergic receptor beta (Canis lupus familiaris); assay: Tested for beta-receptor binding inhibition from canine ventricular tissue, using [3H]dihydroalprenolol as the radioligand in anesthetized dogs
Canis familiaris [14] = assay: Concentration at which maximum change in […] was observed from control value in anesthetized dogs; The maximum observed change APD95 from control value and concentration at 30 uM when this occurred; format: functional, Canis lupus familiaris
[15] = Ratio of number of active animals to number of treated at dose 10-30 mg/kg administered intraperitoneally in anesthetized dogs; No of animals tested=3; format: functional
[16] = Ratio of number of active animals to number of treated at dose 22-30 mg/kg administered intraperitoneally in anesthetized dogs; No of animals tested=2; format: functional
Canis familiaris [17] = assay: Percent change in heart rate (HR) from control at active dose 22-30 mg/kg administered intraduodenally
Canis familiaris [18] = assay: Percent change in blood pressure (BP) from control at active dose 22-30 mg/kg administered intraperitoneally in anesthetized dogs; format: functional, Canis lupus familiaris
Canis familiaris [19] = assay: Percent change in FRP from control at active dose 22-30 mg/kg administered intraduodenally in anesthetized dogs
Canis familiaris [20] = assay: Percent change in FRP from control at active dose 1.0-10 mg/kg administered intraperitoneally; format: functional, Canis lupus familiaris
Canis familiaris [21] = assay: Percent change in heart rate (HR) from control at active dose 1.0-10 mg/kg administered intraperitoneally in anesthetized dogs; format: functional, Canis lupus familiaris
Canis familiaris [22] = assay: Percent change in blood pressure (BP) from control at active dose 1.0-10 mg/kg administered intraperitoneally in anesthetized dogs; format: functional, Canis lupus familiaris
[23] = Ratio of number of active animals to number of treated at dose 1.0-10 mg/kg administered intraperitoneally in PES model in anesthetized dogs; 3/5; format: functional
[24] = biological target: T1, Beta-2 adrenergic receptor (Canis lupus familiaris, UniProt P54833)
Description: Tested for Beta-2 adrenergic receptor selectivity in canine lung tissue in anesthetized dogs

Canis familiaris [25] = assay: Percent change in heart rate (HR) from control at active dose 30 mg/kg administered intraperitoneally; format: functional, Canis lupus familiaris; conditions: route intraperitoneal
[26] = Ratio of number of active animals to number of treated at dose 30 mg/kg administered intraperitoneally in anesthetized dogs; No of animals tested=2; format: functional; conditions: route intraperitoneal
Canis familiaris [27] = assay: Percent change in blood pressure (BP) from control at active dose 30 mg/kg administered intraperitoneally in anesthetized dogs; format: functional, Canis lupus familiaris; conditions: route intraperitoneal
Canis familiaris [28] = assay: Percent change in FRP from control at active dose 30 mg/kg administered intraperitoneally in anesthetized dogs; format: functional, Canis lupus familiaris; conditions: route intraperitoneal
[29] = biological target: T1, Beta-2 adrenergic receptor; assay: Beta2-receptor selectivity in canine lung tissue in anesthetized dogs; format: functional
[30] = biological target: Beta-1 adrenergic receptor (Canis lupus familiaris); assay: Tested for beta1-receptor selectivity in canine cardiac tissue in anesthetized dogs
Canis familiaris [31] = assay: Percent change in FRP from control at active dose 1.0-10 mg/kg administered intravenously
Canis familiaris [32] = assay: Percent change in heart rate (HR) from control at active dose 1.0-10 mg/kg administered intravenously in conscious dogs
Canis familiaris [33] = assay: Concentration at which maximum change in […] was observed from control value in anesthetized dogs; The maximum observed change APD95 from control value and concentration at 100 uM when this occurred; format: functional, Canis lupus familiaris
[34] = Ratio of number of active animals to number of treated at dose 1.0 mg/kg administered intraperitoneally in Epinephrine-induced model in anesthetized dogs; 4/4; format: functional; conditions: route intraperitoneal
Canis familiaris [35] = assay: Percent change in heart rate (HR) from control at active dose 0.3-10 mg/kg administered intraperitoneally in anesthetized dogs; format: functional, Canis lupus familiaris
[36] = Ratio of number of active animals to number of treated at dose 3.0 mg/kg administered intraperitoneally in Epinephrine-induced model in anesthetized dogs; 6/6; conditions: route intraperitoneal
Canis familiaris [37] = assay: Percent change in FRP from control at active dose 0.3-10 mg/kg administered intraperitoneally; format: functional, Canis lupus familiaris
Canis familiaris [38] = assay: Percent change in blood pressure (BP) from control at active dose 0.3-10 mg/kg administered intraperitoneally in anesthetized dogs; format: functional, Canis lupus familiaris
Canis familiaris [39] = assay: Percent change in heart rate (HR) from control at active dose 10-30 mg/kg administered intraperitoneally; format: functional, Canis lupus familiaris
Canis familiaris [40] = assay: Percent change in heart rate (HR) from control at active dose 30 mg/kg administered intraduodenally; conditions: route intraduodenal
Canis familiaris [41] = assay: Concentration at which maximum change in […] was observed from control value in anesthetized dogs; The maximum observed change APD95 from control value and concentration at 1 uM when this occurred; format: functional, Canis lupus familiaris
[42] = Ratio of number of active animals to number of treated at dose 30 mg/kg administered intraperitoneally in anesthetized dogs; No of animals tested=4; conditions: route intraperitoneal
Canis familiaris [43] = assay: Percent change in blood pressure (BP) from control at active dose 0.3-3 mg/kg administered intraperitoneally in anesthetized dogs; format: functional, Canis lupus familiaris
Canis familiaris [44] = assay: Percent change in heart rate (HR) from control at active dose 1.0-10 mg/kg administered intraduodenally
Canis familiaris [45] = assay: Percent change in heart rate (HR) from control at active dose 0.3-3 mg/kg administered intravenously in conscious dogs
Canis familiaris [46] = assay: Percent change in FRP from control at active dose 1.0-10 mg/kg administered intraduodenally in anesthetized dogs
Canis familiaris [47] = assay: Percent change in FRP from control at active dose 0.3-3 mg/kg administered intravenously
[48] = Ratio of number of active animals to number of treated in anesthetized dogs; No of animals tested=2; format: functional
[49] = Ratio of number of active animals to number of treated at dose 1.0 mg/kg administered intraperitoneally in Epinephrine-induced model in anesthetized dogs; 4/8; format: functional; conditions: route intraperitoneal
[50] = Ratio of number of active animals to number of treated administered intraperitoneally in Epinephrine-induced model in anesthetized dogs; 4/8; conditions: route intraperitoneal
Canis familiaris [51] = assay: Percent change in heart rate (HR) from control at active dose 10 mg/kg administered intraduodenally; conditions: route intraduodenal; remark: listed apart in the source
[52] = Ratio of number of active animals to number of treated at dose 1.0-10 mg/kg administered intravenously in PES model in conscious dogs; 5/6
[53] = biological target: Beta-1 adrenergic receptor (Canis familiaris)

T1 sequence (P54833 whole entry): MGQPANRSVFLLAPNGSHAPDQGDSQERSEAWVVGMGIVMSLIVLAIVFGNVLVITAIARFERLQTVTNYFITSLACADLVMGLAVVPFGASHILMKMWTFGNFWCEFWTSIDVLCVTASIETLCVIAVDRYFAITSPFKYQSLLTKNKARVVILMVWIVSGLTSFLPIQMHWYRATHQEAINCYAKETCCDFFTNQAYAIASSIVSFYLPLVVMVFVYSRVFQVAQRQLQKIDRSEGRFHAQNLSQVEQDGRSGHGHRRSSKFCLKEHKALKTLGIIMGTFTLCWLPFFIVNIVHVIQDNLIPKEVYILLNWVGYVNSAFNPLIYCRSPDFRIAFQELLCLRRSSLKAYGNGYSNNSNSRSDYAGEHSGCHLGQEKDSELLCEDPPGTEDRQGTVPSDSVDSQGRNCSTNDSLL

CS(=O)(=O)Nc1ccc(C(=O)N2CCN(CC(O)COc3cccc4ccccc34)CC2)cc1 (centres undefined)
Change (Canis familiaris [1]): 19%
C20 (Canis familiaris [2]): 0.5 µM
Change (Canis familiaris [3]): -25%
Max delta (Canis familiaris [4]): 55%
No. effective [5]: 2
IC50 [6]: 30.9 µM
Change (Canis familiaris [7]): 5%

CS(=O)(=O)Nc1ccc(N2CCN(CC(O)COc3cccc4c3CCCC4=O)CC2)cc1 (centres undefined)
Change (Canis familiaris [8]): -1%
C20 (Canis familiaris [2]): 1.9 µM
Ratio [9]: 1
Max delta (Canis familiaris [10]): 48%
Change (Canis familiaris [11]): 18%
IC50 [6]: 8.4 µM
Change (Canis familiaris [12]): 12%

COc1ccccc1C(O)CNCCOc1ccc(-n2ccnc2)cc1 (centres undefined)
IC50 [13]: 3.7 µM
C20 APD95 (Canis familiaris [2]): 10.4 µM
Max delta (Canis familiaris [14]): 33%

COCCc1ccc(OCC(O)CN2CCN(c3ccc(NS(C)(=O)=O)cc3)CC2)cc1 (centres undefined)
Change (Canis familiaris [1]): 15%
C20 (Canis familiaris [2]): 3.2 µM
Change (Canis familiaris [3]): -12%
No. effective [15]: 3
Max delta (Canis familiaris [4]): 76%
IC50 [6]: 109 µM
Change (Canis familiaris [7]): 9%

COc1ccc(OCC(O)CNCCNC(=O)c2ccc(-n3ccnc3)cc2)cc1 (centres undefined)
No. effective [16]: 2
C20 (Canis familiaris [2]): 6.6 µM
Change (Canis familiaris [17]): -35%
Change (Canis familiaris [18]): -1%
IC50 [6]: 61.4 µM
Max delta (Canis familiaris [14]): 47%
Change (Canis familiaris [19]): 24%

Cc1cccc(OCC(O)CN2CCN(c3ccc(NS(C)(=O)=O)cc3)CC2)c1 (centres undefined)
Change (Canis familiaris [8]): -21%
C20 (Canis familiaris [2]): <1 µM
Change (Canis familiaris [20]): 13%
Change (Canis familiaris [21]): 18%
Change (Canis familiaris [22]): -1%
Max delta (Canis familiaris [4]): 55%
No. effective [23]: 3
IC50 [24]: 49.3 µM
Change (Canis familiaris [11]): 13%
Change (Canis familiaris [12]): 17%

CS(=O)(=O)Nc1ccc(N2CCN(CC(O)CON=C(C3CC3)C3CC3)CC2)cc1 (centres undefined)
Change (Canis familiaris [25]): -17%
C20 (Canis familiaris [2]): 8 µM
Change (Canis familiaris [20]): 6%
Change (Canis familiaris [21]): 9%
Change (Canis familiaris [22]): 8%
Ratio [26]: 1
Change (Canis familiaris [27]): 17%
Change (Canis familiaris [28]): 15%
Max delta (Canis familiaris [14]): 45%

OC(CNCCOc1ccc(-n2ccnc2)cc1)COc1ccccc1 (centres undefined)
IC50 [13]: 0.04 µM
C20 APD95 (Canis familiaris [2]): 8.8 µM
IC50 [29]: 0.28 µM
IC50 [30]: 0.04 µM
Max delta (Canis familiaris [4]): 21%

OC(CNCCOc1ccc(-n2ccnc2)cc1)CONC(C1CC1)C1CC1 (centres undefined)
Change (Canis familiaris [8]): -18%
IC50 [13]: 0.3 µM
C20 APD95 (Canis familiaris [2]): 1.5 µM
Change (Canis familiaris [31]): 3%
Change (Canis familiaris [22]): -5%
Max delta (Canis familiaris [4]): 87%
Change (Canis familiaris [32]): -13%
Change (Canis familiaris [11]): 2%
Change (Canis familiaris [12]): 20%

CC(C)NCC(O)c1ccc(NS(C)(=O)=O)cc1 (centres undefined) [SOTALOL]
Max delta (Canis familiaris [33]): 48%
No. of active/no. of tested [34]: 4
Change (Canis familiaris [1]): 17%
Change (Canis familiaris [35]): -6%
C20 (Canis familiaris [2]): 14.4 µM
No. of active/no. of tested [36]: 6
Change (Canis familiaris [37]): 14%
Change (Canis familiaris [38]): 8%
Change (Canis familiaris [39]): -10%
Change (Canis familiaris [7]): 9%

CS(=O)(=O)Nc1ccc(N2CCN(CC(O)COc3ccccc3)CC2)cc1 (centres undefined)
C20 (Canis familiaris [2]): 2.7 µM
Change (Canis familiaris [40]): -7%
Max delta (Canis familiaris [41]): 52%
Ratio [42]: 1
Change (Canis familiaris [27]): -17%
Change (Canis familiaris [28]): 14%
IC50 [6]: 15.8 µM

CS(=O)(=O)Nc1ccc(OC[C@@H](O)CNCCOc2ccc(-n3ccnc3)cc2)cc1 (stereo in doubt; 1) [ERSENTILIDE]
Change (Canis familiaris [43]): 3%
Change (Canis familiaris [44]): -16%
C20 APD95 (Canis familiaris [2]): 0.4 µM
IC50 [29]: 46.5 µM
Change (Canis familiaris [22]): 3%
Change (Canis familiaris [45]): 9%
Change (Canis familiaris [46]): 27%
Change (Canis familiaris [47]): 13%
Max delta (Canis familiaris [14]): 92%

CS(=O)(=O)Nc1ccc(CNCC(O)COc2ccccc2)cc1 (centres undefined)
C20 (Canis familiaris [2]): <1 µM
Max delta (Canis familiaris [4]): 40%
Ratio [48]: 0
IC50 [6]: 2.9 µM

Cc1ccccc1OCC(O)CN1CCN(c2ccc(NS(C)(=O)=O)cc2)CC1 (centres undefined)
No. effective [49]: 4
C20 (Canis familiaris [2]): <4.5 µM
Ratio [9]: 2
Change (Canis familiaris [20]): 8%
Ratio [50]: 0.5
Change (Canis familiaris [51]): -11%
Change (Canis familiaris [21]): -3%
Change (Canis familiaris [22]): 13%
No. effective [52]: 5
Max delta (Canis familiaris [4]): 53%
IC50 [53]: 3.3 µM
IC50 [24]: 6.6 µM
Change (Canis familiaris [11]): 11%
IC50 [6]: 2.3 µM
Change (Canis familiaris [12]): 13%
